Source: PubChem BioAssay (NCI)
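Interpolation was linear, between the two tested concentrations surrounding the appropriate level; five concentrations were tested over 48 hours in 96-well plates. Abbreviation: GI50, concentration required for 50% inhibition of growth. TGI: total growth inhibition.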

Key:
Experiment in all cases: NCI tumour cell line growth inhibition, 48 h
CAKI-1 renal = system: CAKI-1 renal
HS 578T breast = system: HS 578T breast
HCT-15 colon = system: HCT-15 colon
U251 CNS = system: U251 CNS
NCI-H23 lung = system: NCI-H23 lung
HOP-62 NSCLC = system: HOP-62 NSCLC
DU-145 prostate = system: DU-145 prostate
SNB-75 CNS = system: SNB-75 CNS
MDA-MB-435 = system: MDA-MB-435
COLO 205 colon = system: COLO 205 colon
BT-549 breast = system: BT-549 breast
SK-MEL-28 melanoma = system: SK-MEL-28 melanoma
IGROV1 ovarian = system: IGROV1 ovarian
NCI-H226 lung = system: NCI-H226 lung
PC-3 prostate = system: PC-3 prostate
LOX IMVI melanoma = system: LOX IMVI melanoma
UACC-257 melanoma = system: UACC-257 melanoma
MDA-MB-468 breast = system: MDA-MB-468 breast
K-562 leukemia = system: K-562 leukemia
HL-60(TB) leukemia = system: HL-60(TB) leukemia
OVCAR-5 ovarian = system: OVCAR-5 ovarian
KM12 colon = system: KM12 colon
OVCAR-4 ovarian = system: OVCAR-4 ovarian
786-0 renal = system: 786-0 renal
SW-620 colon = system: SW-620 colon
HCT-116 colon = system: HCT-116 colon
NCI/ADR-RES ovarian = system: NCI/ADR-RES ovarian
OVCAR-8 ovarian = system: OVCAR-8 ovarian
ACHN renal = system: ACHN renal
SK-MEL-2 melanoma = system: SK-MEL-2 melanoma
NCI-H460 lung = system: NCI-H460 lung
UO-31 renal = system: UO-31 renal
EKVX NSCLC = system: EKVX NSCLC
SF-268 CNS = system: SF-268 CNS
MOLT-4 leukemia = system: MOLT-4 leukemia
CCRF-CEM leukemia = system: CCRF-CEM leukemia
M14 melanoma = system: M14 melanoma
SK-MEL-5 melanoma = system: SK-MEL-5 melanoma
TK-10 renal = system: TK-10 renal
MDA-MB-231 breast = system: MDA-MB-231 breast
A549 NSCLC = system: A549 NSCLC
SNB-19 CNS = system: SNB-19 CNS
HCC-2998 colon = system: HCC-2998 colon
RPMI-8226 leukemia = system: RPMI-8226 leukemia
A498 renal = system: A498 renal
HOP-92 NSCLC = system: HOP-92 NSCLC
SN12C renal = system: SN12C renal
MCF7 breast = system: MCF7 breast
SF-539 CNS = system: SF-539 CNS
SF-295 CNS = system: SF-295 CNS
T-47D breast = system: T-47D breast
OVCAR-3 ovarian = system: OVCAR-3 ovarian
NCI-H522 lung = system: NCI-H522 lung
SK-OV-3 ovarian = system: SK-OV-3 ovarian
HT29 colon = system: HT29 colon
SR leukemia = system: SR leukemia
UACC-62 melanoma = system: UACC-62 melanoma
MALME-3M melanoma = system: MALME-3M melanoma

Work on `Cc1cc2nc3c4ccccc4n(CC4=NCCN4)c3nc2cc1C` yielded a GI50 (CAKI-1 renal) of 1.38 µM, a TGI (CAKI-1 renal) of 11.7 µM and a GI50 (HS 578T breast) of 11.2 µM. It also gave a TGI (HS 578T breast) of 29.7 µM, a GI50 (HCT-15 colon) of 3.44 µM and a TGI (HCT-15 colon) of 15.5 µM. For the same compound, the GI50 (U251 CNS) was 1.25 µM, the TGI (U251 CNS) was 4.21 µM and the GI50 (NCI-H23 lung) was 2.64 µM. The TGI (NCI-H23 lung) was 13.1 µM, the GI50 (HOP-62 NSCLC) was 2.34 µM and the TGI (HOP-62 NSCLC) was 11.8 µM. The GI50 (DU-145 prostate) was 3.08 µM, the TGI (DU-145 prostate) was 14.4 µM and the GI50 (SNB-75 CNS) was 1.49 µM. The TGI (SNB-75 CNS) was 10.7 µM, the GI50 (MDA-MB-435) was 3.67 µM and the TGI (MDA-MB-435) was 14.3 µM. For the same compound, the GI50 (COLO 205 colon) was 3.11 µM, the TGI (COLO 205 colon) was 20.2 µM and the GI50 (BT-549 breast) was 6.52 µM. It also gave a TGI (BT-549 breast) of 22.7 µM, a GI50 (SK-MEL-28 melanoma) of 7.93 µM and a TGI (SK-MEL-28 melanoma) of 20.6 µM. The GI50 (IGROV1 ovarian) was 1.99 µM, the TGI (IGROV1 ovarian) was 15.4 µM and the GI50 (NCI-H226 lung) was 1.44 µM. For the same compound, the TGI (NCI-H226 lung) was 5 µM, the GI50 (PC-3 prostate) was 1.75 µM and the TGI (PC-3 prostate) was over 100 µM. It also gave a GI50 (LOX IMVI melanoma) of 1.19 µM, a TGI (LOX IMVI melanoma) of 2.47 µM and a GI50 (UACC-257 melanoma) of 10.6 µM. The TGI (UACC-257 melanoma) was 25.3 µM, the GI50 (MDA-MB-468 breast) was 2.06 µM and the TGI (MDA-MB-468 breast) was 7.09 µM. For the same compound, the GI50 (K-562 leukemia) was 1.78 µM, the TGI (K-562 leukemia) was over 100 µM and the GI50 (HL-60(TB) leukemia) was 3.06 µM. For the same compound, the TGI (HL-60(TB) leukemia) was 14.4 µM, the GI50 (OVCAR-5 ovarian) was 2.62 µM and the TGI (OVCAR-5 ovarian) was 10.6 µM. The GI50 (KM12 colon) was 5.51 µM, the TGI (KM12 colon) was 22.6 µM and the GI50 (OVCAR-4 ovarian) was 5.76 µM. It also gave a TGI (OVCAR-4 ovarian) of 20.8 µM, a GI50 (786-0 renal) of 3.48 µM and a TGI (786-0 renal) of 13.3 µM. For the same compound, the GI50 (SW-620 colon) was 0.997 µM, the TGI (SW-620 colon) was 11.9 µM and the GI50 (HCT-116 colon) was 1.5 µM. The TGI (HCT-116 colon) was 6.19 µM, the GI50 (NCI/ADR-RES ovarian) was 3.5 µM and the TGI (NCI/ADR-RES ovarian) was 17.8 µM. For the same compound, the GI50 (OVCAR-8 ovarian) was 2.53 µM, the TGI (OVCAR-8 ovarian) was 19.3 µM and the GI50 (ACHN renal) was 1.74 µM. The TGI (ACHN renal) was 5.3 µM, the GI50 (SK-MEL-2 melanoma) was 15.9 µM and the TGI (SK-MEL-2 melanoma) was 30.5 µM. The GI50 (NCI-H460 lung) was 0.634 µM, the TGI (NCI-H460 lung) was 1.93 µM and the GI50 (UO-31 renal) was 0.605 µM. It also gave a TGI (UO-31 renal) of 6.49 µM, a GI50 (EKVX NSCLC) of 10.3 µM and a TGI (EKVX NSCLC) of 22.5 µM. The GI50 (SF-268 CNS) was 4.81 µM, the TGI (SF-268 CNS) was 24 µM and the GI50 (MOLT-4 leukemia) was 1.17 µM. The TGI (MOLT-4 leukemia) was 6.54 µM, the GI50 (CCRF-CEM leukemia) was 2.37 µM and the TGI (CCRF-CEM leukemia) was 42.2 µM. The GI50 (M14 melanoma) was 3.1 µM, the TGI (M14 melanoma) was 14.1 µM and the GI50 (SK-MEL-5 melanoma) was 6.62 µM. It also gave a TGI (SK-MEL-5 melanoma) of 19.2 µM, a GI50 (TK-10 renal) of 6.35 µM and a TGI (TK-10 renal) of 20.7 µM. For the same compound, the GI50 (MDA-MB-231 breast) was 2.01 µM, the TGI (MDA-MB-231 breast) was 5.72 µM and the GI50 (A549 NSCLC) was 1.28 µM. For the same compound, the TGI (A549 NSCLC) was 16.6 µM, the GI50 (SNB-19 CNS) was 3.21 µM and the TGI (SNB-19 CNS) was 15.9 µM. It also gave a GI50 (HCC-2998 colon) of 2.69 µM, a TGI (HCC-2998 colon) of 15.7 µM and a GI50 (RPMI-8226 leukemia) of 2.55 µM. It also gave a TGI (RPMI-8226 leukemia) of 36 µM, a GI50 (A498 renal) of 6.15 µM and a TGI (A498 renal) of 20.9 µM. For the same compound, the GI50 (HOP-92 NSCLC) was 2.84 µM, the TGI (HOP-92 NSCLC) was 17.5 µM and the GI50 (SN12C renal) was 1.59 µM. For the same compound, the TGI (SN12C renal) was 12.2 µM, the GI50 (MCF7 breast) was 0.747 µM and the TGI (MCF7 breast) was 12.5 µM. The GI50 (SF-539 CNS) was 1.59 µM, the TGI (SF-539 CNS) was 3.06 µM and the GI50 (SF-295 CNS) was 1.12 µM. For the same compound, the TGI (SF-295 CNS) was 10.7 µM, the GI50 (T-47D breast) was 3.07 µM and the TGI (T-47D breast) was 15.5 µM. The GI50 (OVCAR-3 ovarian) was 5.89 µM, the TGI (OVCAR-3 ovarian) was 22.6 µM and the GI50 (NCI-H522 lung) was 1.86 µM. It also gave a TGI (NCI-H522 lung) of 15.1 µM, a GI50 (SK-OV-3 ovarian) of 2.43 µM and a TGI (SK-OV-3 ovarian) of 9.95 µM. It also gave a GI50 (HT29 colon) of 1.52 µM, a TGI (HT29 colon) of 3.6 µM and a GI50 (SR leukemia) of 0.523 µM. For the same compound, the TGI (SR leukemia) was 9.37 µM, the GI50 (UACC-62 melanoma) was 1.91 µM and the TGI (UACC-62 melanoma) was 11.8 µM. For the same compound, the GI50 (MALME-3M melanoma) was 1.4 µM and the TGI (MALME-3M melanoma) was 2.85 µM.
